# Assay results published in patent US4350704A, “Substituted acyl derivatives of octahydro-1H-indole-2-carboxylic acids” (Warner-Lambert Company, priority 1981, dated 1982).
# Counter-ions that a name gives are not always drawn.
# Target: T1, guinea pig serum ACE (Cavia porcellus, UniProt H0UWL7)
# T1 construct: ACE from guinea pig serum; from tissue; host or cells: guinea pig serum
# T1 sequence (H0UWL7 33-1302): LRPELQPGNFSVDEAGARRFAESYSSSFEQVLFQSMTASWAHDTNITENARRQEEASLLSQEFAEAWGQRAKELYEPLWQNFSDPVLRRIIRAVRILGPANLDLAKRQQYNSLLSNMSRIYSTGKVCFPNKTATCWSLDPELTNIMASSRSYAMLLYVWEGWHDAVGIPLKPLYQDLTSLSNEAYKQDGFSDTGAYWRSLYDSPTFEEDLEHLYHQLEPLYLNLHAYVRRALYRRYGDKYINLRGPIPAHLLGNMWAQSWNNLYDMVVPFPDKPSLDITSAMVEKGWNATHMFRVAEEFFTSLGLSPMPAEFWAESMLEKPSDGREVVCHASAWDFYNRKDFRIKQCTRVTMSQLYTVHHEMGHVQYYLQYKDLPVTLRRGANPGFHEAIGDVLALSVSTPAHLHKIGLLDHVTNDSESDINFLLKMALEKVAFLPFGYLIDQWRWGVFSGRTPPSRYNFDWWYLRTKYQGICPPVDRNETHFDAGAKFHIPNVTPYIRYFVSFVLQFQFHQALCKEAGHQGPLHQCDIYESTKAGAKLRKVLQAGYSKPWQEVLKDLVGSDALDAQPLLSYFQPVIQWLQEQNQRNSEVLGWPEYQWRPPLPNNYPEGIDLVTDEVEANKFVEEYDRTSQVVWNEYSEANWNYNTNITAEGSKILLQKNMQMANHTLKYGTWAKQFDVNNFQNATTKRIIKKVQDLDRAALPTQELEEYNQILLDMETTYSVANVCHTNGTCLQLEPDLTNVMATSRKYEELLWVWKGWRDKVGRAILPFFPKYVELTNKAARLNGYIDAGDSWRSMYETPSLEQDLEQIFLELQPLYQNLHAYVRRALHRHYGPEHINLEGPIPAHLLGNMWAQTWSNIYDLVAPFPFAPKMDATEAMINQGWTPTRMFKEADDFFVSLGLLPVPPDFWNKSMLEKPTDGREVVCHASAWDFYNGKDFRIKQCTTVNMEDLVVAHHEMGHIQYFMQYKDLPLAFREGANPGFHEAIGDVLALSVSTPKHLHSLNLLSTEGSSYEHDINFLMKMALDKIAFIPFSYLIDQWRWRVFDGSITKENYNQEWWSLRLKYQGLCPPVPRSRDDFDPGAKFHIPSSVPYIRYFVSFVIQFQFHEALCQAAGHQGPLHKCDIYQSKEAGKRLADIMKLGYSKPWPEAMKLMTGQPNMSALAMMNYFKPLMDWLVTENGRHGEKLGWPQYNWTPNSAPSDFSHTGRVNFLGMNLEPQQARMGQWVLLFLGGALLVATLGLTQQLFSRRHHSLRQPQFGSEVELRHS
# Assay: In vitro ACE Assay: angiotensin converting enzyme inhibitory activity
# Assay type: biochemical
# Conditions: 10 min preincubation, 3H-hippuryl-glycylglycine substrate, 60 minute incubation at 37° C., read-out: IC50, Activity of Compounds of Formula V
# Description: In vitro ACE Assay: Angiotensin converting enzyme (ACE) inhibitory activity is determined by assaying guinea pig serum ACE in the presence and absence of the test compound. ACE from guinea pig serum and the test compounds are preincubated for 10 minutes before the addition of the labelled substrate ^3 H-hippuryl-glycylglycine. […] ACE cleaves the hippuryl-glycyl bond to form the dipeptide glycyl-glycine and ^3 H-hippuric acid. The ^3 H-hippuric acid is then extracted with ethyl acetate and the ACE inhibition of a given sample calculated on the basis of the ^3 H-hippuric acid generated.
row,SMILES,IC50 [nM]
1,"CC(CS)C(=O)N1[C@H](C(=O)O)C[C@@H]2CCCC[C@@H]21 (single isomer, unassigned; diastereomer a) [V: R=H; R1=CH3; R2=H; l, A, (1)-(2α, 3aβ, 7aβ)-Octahydro-1-(3-mercapto-2-methylpropanoyl)-1H-2-carboxylic Acid (Diastereomer A), Dicyclohexylamine Salt]",5.2
2,"CC(CSC(=O)c1ccccc1)C(=O)N1[C@H](C(=O)O)C[C@@H]2CCCC[C@@H]21 (single isomer, unassigned; diastereomer a) [V: R=H; R1=CH3; R2=PhCO; l, A, (1)-(2α, 3aβ, 7aβ)-Octahydro-1-[3-(benzoylthio)-2-methylpropanoyl]-1H-indole-2-carboxylic Acid (Diastereomer A)]",540
3,"CC(=O)SCCC(=O)N1[C@H](C(=O)O)C[C@@H]2CCCC[C@@H]21 (relative stereo) [V: R=H; R1=H; R2=CH3CO; --, (2α, 3aβ, 7aβ)-Octahydro-1-[3-(acetylthio)propanoyl]-1H-indole-2-carboxylic Acid]",450
4,CC(C)(C)C(=O)SCCC(=O)N1[C@H](C(=O)O)C[C@@H]2CCCC[C@@H]21 (relative stereo) [V: R=H; R1=H; R2=(CH3)3CCO; dl],58
5,"CCOC(=O)[C@@H]1C[C@@H]2CCCC[C@@H]2N1C(=O)CCSC(C)=O (relative stereo) [V: R=C2H5; R1=H; R2=CH3CO; --, Ethyl (2α, 3aβ, 7aβ)-Octahydro-1-[3-(acetylthio)propanoyl]-1H-indole-2-carboxylate]",3800
6,"O=C(O)[C@@H]1C[C@@H]2CCCC[C@@H]2N1C(=O)CCS (relative stereo) [V: R=H; R1=H; R2=H; --, (2α, 3aβ, 7aβ)-Octahydro-1-(3-mercaptopropanoyl)-1H-indole-2-carboxylic Acid]",21
